From patent US4454155A, “Pharmaceutical compositions containing a mono-substituted derivative of 4-phenyl-4-oxobuten-2-oic acid, and methods of using them in treating gastric and gastroduodenal ailments” (Roussel UCLAF, priority 1981, dated 1984)

Key:
[1] = test system: total acidity of the gastric juice; assay: Gastric anti-secretory activity (Shay, pylorus-ligated rats); type: in vivo, rat; settings: 10 mg/kg, intraduodenally, male rats, 3 hours
Description: (1) Determination of the gastric anti-secretory activity
The technique used is described by H. Shay et al in Gastroenterology 5, 43 (1945).
Male rats were used, each having a weight of about 200 g (ten animals per lot), which had been without food for 48 hours but were allowed 8% glucose solution ad libitum. After the rats were slightly anesthetized with ether, the pylorus of each was ligated. At the end of the operation, different doses of the product to be tested, or in the case of the control animals a 0.5% carboxymethyl cellulose solution, were administered intraduodenally, whereupon the abdominal incision was sutured.
Three hours later, the animals were sacrificed and their stomachs removed after ligating the esophagus. The gastric juice was removed and centrifuged. The volume of gastric juice obtained was then measured and the total acidity of the gastric juice obtained was established by titrating a 100 μL sample of gastric juice to a pH of 7 with 1/10 N Sodium hydroxide aqueous solution. The total acidity was determined.
The percentage of variation of total acidity between the results from test animals and results from control animals were calculated.

Acute toxicity = settings: mouse, in vivo, po; per os, mice
Description: (3) Determination of the acute toxicity
The LD50 was evaluated after administration of the product per os in mice.

[2] = test system: ulcers in the stomachs of rats; assay: Anti-ulcer activity, stress ulcer (stress and cold); type: in vivo, rat; settings: 10 mg/kg, by esophageal tube, female rats, stress at 8° C. for two hours
Description: (2) Determination of the anti-ulcer activity
The technique consists in inducing ulcers in the stomachs of rats by stress (stress and cold). The technique used is described by E. C. Senay and R. J. Levine, Proc. Soc. Ex. Biol. 124, 1221 (1967).
Female rats of 150 g (5 animals per lot) were used which had fasted for 48 hours with water ad libitum and glucose solution for 8 hours. The animals were given the test product, or a 0.5% solution of carboxymethyl cellulose in the case of the control animals, by esophageal tube. Two hours later, the animals were wrapped in a jacket of netting. Their paws were bound and the entire unit was placed in a refrigerator at 8° C. for two hours. The rats were freed and killed with ether. Their stomachs were removed, opened along the greater curvature and examined with a binocular magnifier. The seriousness of the lesions was rated from 0 to 3 for each stomach.
The average intensity of the ulcerations was calculated for each lot of rats. The difference in the degree of ulceration between test animals and control animals was determined and calculated as a percentage.

SMILES	Anti-secretory activity (% variation as compared with the controls), Acid Concentration [1] [%]	LD50 (Acute toxicity) [mg/kg]	Anti-ulcer activity (% variation as compared with the controls), Ulceration [2] [%]
O=C(O)C=CC(=O)c1ccccc1O [Example 1, 4-(2-hydroxyphenyl)-4-oxobuten-2-oic acid]	-65	350	-35
COc1ccc(C(=O)C=CC(=O)O)cc1 [Example 2, 4-(4-methyoxyphenyl)-4-oxobuten-2-oic acid]	-66	500	-73
